Assay results as given in US8129427B2, “2-phenylethylamino derivatives as calcium and/or sodium channel modulators” (Newron Pharmaceuticals S.p.A., priority 2005, dated 2012).

Key:
TTXs sodium channels = experiment: TTXs-sodium channel influx assay (membrane potential fluorescence); format: cell-based, rat; settings: ND7/23 cells, veratridine 100 μM
Method: ND7/23 rat dorsal root ganglion-derived cell line endogenously expresses a mixed population of TTXs sodium channels (such as Nav1.3, Nav1.2, Nav1.1, Nav1.6). These cells lack of TTXr sodium channels as shown by the absence of their respective transcripts. ND7/23 cells were grown in DMEM supplemented with 10% FBS and 1 mM sodium piruvate.
The cells were seeded at 50,000 cells/well on 96 poly-L-lysine-coated plates and further incubated for 18-24 h before use.
The Membrane Potential Kit Assay (Molecular Devices), based on a negatively charged fluorescent dye able to monitor changes in membrane potential caused by the sodium influx due to the channel opening, was used for the assay.
Cells were incubated with the dye loading for 30 minutes at 25° C. Then, 100 nM of the toxin Anemonia sulcata (used as enhancer of the channel opener response) alone or in the presence of TTX (as reference standard) or test compound were added for further 15 minutes.
The fluorescence (excitation: 530 nm, emission: 565 nm wavelength) was measured before and after (40-45 s) the automated injection of the sodium channel opener veratridine (100 μM) using a Victor plate reader (Perkin Elmer).
The inhibition curves were calculated from 5 concentrations, each in triplicate, and the IC50 determined using a linear regression analysis.

[1] = test system: maximal electroshock seizures in mice; experiment: Maximal electroshock test (MES) in mice; format: in vivo, mouse; settings: i.v., 5 minutes before testing
Description: Animals and Apparatus: Male CDl mice weighing 25 g were used. The procedure described by White et al. (White H. S., Woodhead J. H., Franklin […]., and Wolf H. H. Antiepileptic Drugs (1995) 4th ed: 99-110, Raven Press, Ltd., New York) was followed. An Ugo Basile electroconvulsive generator (Model ECT UNIT 7801) was used to deliver an electrical stimulus sufficient to produce a hindlimb tonic extensor response in at least 97% of control animals. The stimulus was delivered intra-aurally through clip electrodes in mice (0.7 s of a 40 mA shock, with a pulse train of 80 Hz having a pulse duration of 0.4 ms). […] Ten mice were studied per group. Complete suppression of the hindlimb tonic extensor component of seizures was taken as evidence of anticonvulsant activity.

N-type calcium channels = N-type calcium channels (Homo sapiens, UniProt Q00975); experiment: N-type calcium channel influx assay (fluorescence); format: cell-based; settings: differentiated IMR32 cells, nifedipine 1 μM, 100 mM KCl depolarization; read-out: IC50
[2] = target: recombinant human N-type channels, h α1B (hCav2.2)+β1b+α2δ-1 subunits (Homo sapiens, UniProt Q00975); experiment: Patch clamp studies of calcium currents inhibition in HEK293 cells; format: cell-based; settings: tonic block, preconditioning −50/−55 mV (half maximal steady-state inactivated condition); read-out: IC50 (Vhalf)
Method: Functional inhibition of the N-type Ca currents was studied using whole cell patch clamp methods (Hamill O. P., Marty A., Neher E., Sakmann B., Sigworth F. J. Pflugers Arch. (1981) 391: 85-100) on HEK293 cells expressing recombinant human N-type channels, obtained after transient transfection of h α1B (hCav2.2)+β1b+α2δ-1 subunits.
Membrane currents were recorded and filtered at 5 kHz with an Axon Axopatch 200B amplifier and digitized with an Axon Digidata 1322A (Axon Instruments, CA, USA). Voltage clamping of membrane potentials and data acquisition were controlled online with Axon pClamp8 software. Measuring and reference electrodes were AgCl—Ag electrodes. Cells had initial seal resistances of >1 GΩ and access resistances of 4.2±0.2 MΩ. Cells were continuously superfused with extracellular solutions using a Biologic RSC-200.
For calcium currents recording the control bath solution contained (mM): Choline chloride (70), MgCl2 (1), BaCl2 (20), TEA.Cl (50), Hepes (10), Glucose (10). Internal pipette solution consisted of (mM): CsCl (140), EGTA (10), MgCl2 (2), Hepes (10), MgATP (1), GTP Tris (0.3).
Compounds were dissolved as 20 mM stock solutions in DMSO and then diluted to the final concentration in the external solutions.
A two-step protocol was used to determine the voltage dependence of the block:
N-type current was activated by a 600 ms step pulse to +10 mV (test pulse) from a 5000 ms preconditioning potential of −110 mV (resting condition) or −50/−55 mV (half maximal steady-state inactivated condition), respectively.
The amplitude of calcium current peaks evoked by the respective test pulses at a frequency of 0.06 Hz were measured before and after exposure to the test substance. Tonic block of currents was calculated as the difference between the peak calcium current measured at the end of a stabilization period in the control external bath solution and peak currents measured at the end of test substance perfusion period (when steady state is reached) divided by control peaks. […]

Chain of N-type calcium channels (Q00975 whole entry): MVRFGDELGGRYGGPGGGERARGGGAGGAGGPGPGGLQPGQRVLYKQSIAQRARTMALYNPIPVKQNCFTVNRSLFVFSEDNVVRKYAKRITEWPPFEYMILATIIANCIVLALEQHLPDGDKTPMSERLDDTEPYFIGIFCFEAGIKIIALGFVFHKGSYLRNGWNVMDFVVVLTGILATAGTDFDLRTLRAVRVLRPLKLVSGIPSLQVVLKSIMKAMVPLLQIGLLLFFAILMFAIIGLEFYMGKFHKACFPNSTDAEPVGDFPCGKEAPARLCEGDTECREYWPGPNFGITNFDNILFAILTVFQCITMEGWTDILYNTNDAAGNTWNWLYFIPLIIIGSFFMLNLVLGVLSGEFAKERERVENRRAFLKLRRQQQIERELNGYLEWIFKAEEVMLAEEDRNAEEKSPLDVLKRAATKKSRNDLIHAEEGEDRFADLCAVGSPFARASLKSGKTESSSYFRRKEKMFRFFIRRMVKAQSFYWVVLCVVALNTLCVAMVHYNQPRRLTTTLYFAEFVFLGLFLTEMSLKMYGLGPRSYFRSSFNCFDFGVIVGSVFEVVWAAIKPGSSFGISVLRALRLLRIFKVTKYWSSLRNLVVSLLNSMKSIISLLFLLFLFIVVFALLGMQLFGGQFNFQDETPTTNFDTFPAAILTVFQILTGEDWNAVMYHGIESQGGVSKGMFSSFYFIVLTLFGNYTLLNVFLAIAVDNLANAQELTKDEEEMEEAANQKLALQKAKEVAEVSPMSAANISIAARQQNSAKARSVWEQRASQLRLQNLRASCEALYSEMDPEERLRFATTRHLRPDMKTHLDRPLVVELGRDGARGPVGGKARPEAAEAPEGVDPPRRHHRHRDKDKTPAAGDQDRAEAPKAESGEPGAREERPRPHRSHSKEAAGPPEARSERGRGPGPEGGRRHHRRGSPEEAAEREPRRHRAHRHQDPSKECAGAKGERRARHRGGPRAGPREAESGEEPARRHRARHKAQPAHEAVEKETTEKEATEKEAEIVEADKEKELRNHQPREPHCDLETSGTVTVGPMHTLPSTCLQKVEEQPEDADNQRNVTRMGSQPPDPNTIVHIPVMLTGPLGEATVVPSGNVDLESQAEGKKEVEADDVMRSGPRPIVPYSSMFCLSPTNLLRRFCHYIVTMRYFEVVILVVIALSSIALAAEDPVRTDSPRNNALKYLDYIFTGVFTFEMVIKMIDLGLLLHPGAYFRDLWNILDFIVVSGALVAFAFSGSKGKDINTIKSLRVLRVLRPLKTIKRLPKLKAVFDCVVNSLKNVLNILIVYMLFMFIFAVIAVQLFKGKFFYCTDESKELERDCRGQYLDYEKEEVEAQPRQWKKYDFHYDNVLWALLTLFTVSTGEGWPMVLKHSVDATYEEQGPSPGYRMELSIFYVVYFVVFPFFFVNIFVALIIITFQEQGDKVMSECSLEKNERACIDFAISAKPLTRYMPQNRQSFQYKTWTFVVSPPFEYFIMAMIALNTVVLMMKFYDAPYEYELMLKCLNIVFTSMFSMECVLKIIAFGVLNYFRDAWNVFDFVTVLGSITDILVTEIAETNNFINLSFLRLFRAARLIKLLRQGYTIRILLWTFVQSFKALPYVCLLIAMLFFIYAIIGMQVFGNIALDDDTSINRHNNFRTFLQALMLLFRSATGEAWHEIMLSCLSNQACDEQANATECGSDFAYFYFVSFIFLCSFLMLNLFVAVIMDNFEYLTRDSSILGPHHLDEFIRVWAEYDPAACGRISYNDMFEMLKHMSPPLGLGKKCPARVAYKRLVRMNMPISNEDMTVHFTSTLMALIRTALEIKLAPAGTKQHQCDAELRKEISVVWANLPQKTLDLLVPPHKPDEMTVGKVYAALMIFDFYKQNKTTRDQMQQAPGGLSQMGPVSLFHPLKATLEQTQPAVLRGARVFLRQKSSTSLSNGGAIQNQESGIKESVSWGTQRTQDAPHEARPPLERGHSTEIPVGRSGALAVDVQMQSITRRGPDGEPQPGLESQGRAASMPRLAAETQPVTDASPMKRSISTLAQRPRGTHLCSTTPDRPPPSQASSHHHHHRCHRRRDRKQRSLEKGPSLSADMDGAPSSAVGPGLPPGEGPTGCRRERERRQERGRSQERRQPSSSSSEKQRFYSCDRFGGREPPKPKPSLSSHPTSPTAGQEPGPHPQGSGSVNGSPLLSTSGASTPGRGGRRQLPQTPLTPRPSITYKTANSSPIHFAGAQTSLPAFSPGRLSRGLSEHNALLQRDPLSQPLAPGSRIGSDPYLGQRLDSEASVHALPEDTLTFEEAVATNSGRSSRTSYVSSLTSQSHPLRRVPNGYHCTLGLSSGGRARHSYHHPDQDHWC
Chain of N-type calcium channels (Q02641 whole entry partner): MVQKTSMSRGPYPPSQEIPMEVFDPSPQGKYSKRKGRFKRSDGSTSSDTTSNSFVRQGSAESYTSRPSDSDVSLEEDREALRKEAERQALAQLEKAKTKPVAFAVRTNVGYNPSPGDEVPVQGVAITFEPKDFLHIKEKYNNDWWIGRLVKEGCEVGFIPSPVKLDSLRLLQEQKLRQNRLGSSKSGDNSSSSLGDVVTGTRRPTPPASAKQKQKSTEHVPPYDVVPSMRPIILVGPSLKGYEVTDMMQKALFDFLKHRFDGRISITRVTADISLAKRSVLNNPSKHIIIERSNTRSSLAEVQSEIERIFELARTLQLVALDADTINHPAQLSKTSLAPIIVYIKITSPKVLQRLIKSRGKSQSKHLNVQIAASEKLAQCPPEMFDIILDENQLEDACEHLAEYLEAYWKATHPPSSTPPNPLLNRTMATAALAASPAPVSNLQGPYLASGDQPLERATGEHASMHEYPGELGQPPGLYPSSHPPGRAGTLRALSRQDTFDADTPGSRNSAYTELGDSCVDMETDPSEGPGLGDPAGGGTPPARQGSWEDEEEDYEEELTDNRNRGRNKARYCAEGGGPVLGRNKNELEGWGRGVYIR
Chain of N-type calcium channels (P54289 25-956 partner limits assumed): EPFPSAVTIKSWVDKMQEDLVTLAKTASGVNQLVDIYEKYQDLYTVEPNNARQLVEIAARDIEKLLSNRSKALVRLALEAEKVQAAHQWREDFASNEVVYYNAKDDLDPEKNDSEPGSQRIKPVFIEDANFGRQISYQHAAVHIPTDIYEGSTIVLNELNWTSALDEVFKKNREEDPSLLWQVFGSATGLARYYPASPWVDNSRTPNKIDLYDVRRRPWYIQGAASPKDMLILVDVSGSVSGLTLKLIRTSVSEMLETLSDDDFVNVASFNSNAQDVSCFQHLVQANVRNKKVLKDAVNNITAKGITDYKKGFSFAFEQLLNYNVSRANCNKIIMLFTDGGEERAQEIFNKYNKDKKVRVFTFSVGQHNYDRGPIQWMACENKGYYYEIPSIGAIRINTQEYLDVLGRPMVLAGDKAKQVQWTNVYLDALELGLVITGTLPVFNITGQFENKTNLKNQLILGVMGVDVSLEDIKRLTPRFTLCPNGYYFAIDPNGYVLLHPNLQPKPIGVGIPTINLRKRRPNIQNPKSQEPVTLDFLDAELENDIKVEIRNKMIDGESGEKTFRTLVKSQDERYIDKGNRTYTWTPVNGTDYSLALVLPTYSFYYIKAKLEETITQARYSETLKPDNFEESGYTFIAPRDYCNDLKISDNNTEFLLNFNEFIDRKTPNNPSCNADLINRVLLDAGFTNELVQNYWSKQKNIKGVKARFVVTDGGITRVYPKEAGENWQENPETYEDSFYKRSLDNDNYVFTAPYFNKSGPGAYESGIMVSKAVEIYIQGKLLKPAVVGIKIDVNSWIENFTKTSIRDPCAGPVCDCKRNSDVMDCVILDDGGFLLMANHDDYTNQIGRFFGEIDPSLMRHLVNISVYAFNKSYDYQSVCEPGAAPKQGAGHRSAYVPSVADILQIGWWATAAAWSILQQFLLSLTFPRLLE
Chain of N-type calcium channels (P54289 957-1103 partner limits assumed): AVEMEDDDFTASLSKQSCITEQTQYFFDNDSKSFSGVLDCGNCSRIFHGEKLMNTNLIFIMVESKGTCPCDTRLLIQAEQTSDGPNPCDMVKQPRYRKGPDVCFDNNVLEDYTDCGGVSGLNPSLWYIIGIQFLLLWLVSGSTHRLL
Chain of recombinant human N-type channels, h α1B (hCav2.2)+β1b+α2δ-1 subunits (Q00975 whole entry): as the sequence (Q00975 whole entry) above
Chain of recombinant human N-type channels, h α1B (hCav2.2)+β1b+α2δ-1 subunits (Q02641 whole entry partner): as the sequence (Q02641 whole entry partner) above
Chain of recombinant human N-type channels, h α1B (hCav2.2)+β1b+α2δ-1 subunits (P54289 25-956 partner limits assumed): as the sequence (P54289 25-956 partner limits assumed) above
Chain of recombinant human N-type channels, h α1B (hCav2.2)+β1b+α2δ-1 subunits (P54289 957-1103 partner limits assumed): as the sequence (P54289 957-1103 partner limits assumed) above

Compound	IC50 (TTXs sodium channels) [µM]	50% Protection [1]	IC50 (N-type calcium channels) [µM]	IC50 [2] [µM]
CCCCOc1cccc(CCN(CC(=O)N(C)C)CC2CCOC2)c1.Cl (racemic) [Example 96, 2-[[2-(3-Butoxy-phenyl)-ethyl]-(tetrahydrofuran-3-ylmethyl)amino]-N,N-dimethyl-acetamide hydrochloride]	2	(0.8 mg/kg/iv)	–	–
C[C@H](NCc1ccc(OCc2ccccc2F)cc1)C(N)=O [ralfinamide, (S)-(+)-2-[4-(2-fluoro-benzyloxy)-benzylamino]-propanamide, reference compound]	9.5	–	23	15
